# Assay results from ChEMBL document CHEMBL1201862, “PubChem BioAssay data set” (2004).
#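 Cultured in 96-well plates, cells were exposed to test compound for 48 hours across five concentrations. GI50 is the concentration that inhibits growth by half.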 Calls of active or inactive are those of the source. No stated cut-off is given here; in the data, active = GI50 up to about 1.1 µM and inactive = higher.
# Key:
# Experiment in all cases: growth of human tumour cells (NCI), 48 h
# SF-268 = system: SF-268
# MCF7 = system: MCF7
# KM12 = system: KM12
# A549 = system: A549
# NCI/ADR-RES = system: NCI/ADR-RES
# NCI-H522 = system: NCI-H522
# MDA-MB-435 = system: MDA-MB-435
# IGROV-1 = system: IGROV-1
# HCC 2998 = system: HCC 2998
# SK-MEL-5 = system: SK-MEL-5
# DU-145 = system: DU-145
# K562 = system: K562
# SW-620 = system: SW-620
# SK-OV-3 = system: SK-OV-3
# SNB-19 = system: SNB-19
# HT-29 = system: HT-29
# NCI-H23 = system: NCI-H23
# TK-10 = system: TK-10
# OVCAR-5 = system: OVCAR-5
# MDA-MB-231 = system: MDA-MB-231
# CAKI-1 = system: CAKI-1
# SN12C = system: SN12C
# M14 = system: M14
# Hs-578T = system: Hs-578T
# OVCAR-8 = system: OVCAR-8
# ACHN = system: ACHN
# BT-549 = system: BT-549
# RPMI-8226 = system: RPMI-8226
# OVCAR-3 = system: OVCAR-3
# UO-31 = system: UO-31
# UACC-62 = system: UACC-62
# UACC-257 = system: UACC-257
# CCRF-CEM = system: CCRF-CEM
# NCI-H460 = system: NCI-H460
# COLO 205 = system: COLO 205
# U-251 = system: U-251
# 786-0 = system: 786-0
# MOLT-4 = system: MOLT-4
# SNB-75 = system: SNB-75
# HOP-92 = system: HOP-92
# Malme-3M = system: Malme-3M
# HCT-116 = system: HCT-116
# HCT-15 = system: HCT-15
# SK-MEL-2 = system: SK-MEL-2
# SF-539 = system: SF-539
# A498 = system: A498
# SF-295 = system: SF-295
# MDA-N = system: MDA-N
# SK-MEL-28 = system: SK-MEL-28
# PC-3 = system: PC-3
# RXF 393 = system: RXF 393
# EKVX = system: EKVX
# T47D = system: T47D
# HOP-62 = system: HOP-62
# SR = system: SR
# OVCAR-4 = system: OVCAR-4
# LOX IMVI = system: LOX IMVI
# NCI-H226 = system: NCI-H226
# HL-60 = system: HL-60
smiles,measurement,setting,value
O=C1/C(=C\c2cccc(Oc3ccccc3)c2)S(=O)(=O)C(c2ccccc2)N1c1cccc(Cl)c1 (stereo not drawn),GI50,SF-268,39.2 µM (inactive)
same,GI50,MCF7,30.2 µM (inactive)
same,GI50,KM12,58.1 µM (inactive)
same,GI50,A549,> 100 µM (inactive)
same,GI50,NCI/ADR-RES,35.4 µM (inactive)
same,GI50,NCI-H522,26.8 µM (inactive)
same,GI50,MDA-MB-435,38.5 µM (inactive)
same,GI50,IGROV-1,38.9 µM (inactive)
same,GI50,HCC 2998,> 100 µM (inactive)
same,GI50,SK-MEL-5,43.9 µM (inactive)
same,GI50,DU-145,65.5 µM (inactive)
same,GI50,K562,26.4 µM (inactive)
same,GI50,SW-620,25.1 µM (inactive)
same,GI50,SK-OV-3,66.4 µM (inactive)
same,GI50,SNB-19,68.9 µM (inactive)
same,GI50,HT-29,30.1 µM (inactive)
same,GI50,NCI-H23,51.4 µM (inactive)
same,GI50,TK-10,> 100 µM (inactive)
same,GI50,OVCAR-5,> 100 µM (inactive)
same,GI50,MDA-MB-231,> 100 µM (inactive)
same,GI50,CAKI-1,78.2 µM (inactive)
same,GI50,SN12C,54.8 µM (inactive)
same,GI50,M14,40.8 µM (inactive)
same,GI50,Hs-578T,65.5 µM (inactive)
same,GI50,OVCAR-8,25.2 µM (inactive)
same,GI50,ACHN,71.8 µM (inactive)
same,GI50,BT-549,45.8 µM (inactive)
same,GI50,RPMI-8226,25.9 µM (inactive)
same,GI50,OVCAR-3,36.2 µM (inactive)
same,GI50,UO-31,34.7 µM (inactive)
same,GI50,UACC-62,57.7 µM (inactive)
same,GI50,UACC-257,74.6 µM (inactive)
same,GI50,CCRF-CEM,11.1 µM (inactive)
same,GI50,NCI-H460,88.3 µM (inactive)
same,GI50,COLO 205,69.8 µM (inactive)
same,GI50,U-251,50.4 µM (inactive)
same,GI50,786-0,46.5 µM (inactive)
same,GI50,MOLT-4,30.1 µM (inactive)
same,GI50,SNB-75,> 100 µM (inactive)
same,GI50,HOP-92,27.7 µM (inactive)
same,GI50,Malme-3M,> 100 µM (inactive)
same,GI50,HCT-116,29.4 µM (inactive)
same,GI50,HCT-15,40.6 µM
same,GI50,SK-MEL-2,> 100 µM (inactive)
same,GI50,SF-539,36.1 µM (inactive)
same,GI50,A498,> 100 µM (inactive)
same,GI50,SF-295,39.4 µM (inactive)
same,GI50,MDA-N,25.9 µM (inactive)
same,GI50,SK-MEL-28,> 100 µM (inactive)
same,GI50,PC-3,> 100 µM (inactive)
same,GI50,RXF 393,36.3 µM (inactive)
same,GI50,EKVX,51.1 µM (inactive)
same,GI50,T47D,46.8 µM (inactive)
same,GI50,HOP-62,98.2 µM (inactive)
same,GI50,SR,20.9 µM (inactive)
same,GI50,OVCAR-4,98.9 µM (inactive)
same,GI50,LOX IMVI,19 µM (inactive)
CCN(CC)C(=S)N/N=C/c1cc(OC)ccc1O,GI50,SF-268,1.87 µM (inactive)
same,GI50,MCF7,3.84 µM (inactive)
same,GI50,KM12,1.7 µM (inactive)
same,GI50,A549,4.17 µM (inactive)
same,GI50,NCI/ADR-RES,2.58 µM (inactive)
same,GI50,NCI-H522,3.85 µM (inactive)
same,GI50,MDA-MB-435,6.18 µM (inactive)
same,GI50,IGROV-1,6.37 µM (inactive)
same,GI50,HCC 2998,3.86 µM (inactive)
same,GI50,SK-MEL-5,6.22 µM (inactive)
same,GI50,DU-145,5.86 µM (inactive)
same,GI50,K562,4.52 µM (inactive)
same,GI50,SW-620,8.28 µM (inactive)
same,GI50,SK-OV-3,5.21 µM (inactive)
same,GI50,SNB-19,8.91 µM (inactive)
same,GI50,HT-29,7 µM (inactive)
same,GI50,NCI-H23,7.98 µM (inactive)
same,GI50,TK-10,4.3 µM (inactive)
same,GI50,OVCAR-5,57.5 µM (inactive)
same,GI50,MDA-MB-231,30.7 µM (inactive)
same,GI50,SN12C,5.79 µM (inactive)
same,GI50,M14,3.69 µM (inactive)
same,GI50,Hs-578T,69.8 µM (inactive)
same,GI50,OVCAR-8,4.51 µM (inactive)
same,GI50,ACHN,2.98 µM (inactive)
same,GI50,NCI-H226,3.03 µM (inactive)
same,GI50,BT-549,7.05 µM (inactive)
same,GI50,OVCAR-3,2.1 µM (inactive)
same,GI50,UO-31,0.561 µM (active)
same,GI50,UACC-62,4.25 µM (inactive)
same,GI50,UACC-257,7.31 µM (inactive)
same,GI50,CCRF-CEM,0.895 µM (active)
same,GI50,NCI-H460,1.66 µM (inactive)
same,GI50,COLO 205,3.86 µM (inactive)
same,GI50,U-251,3.61 µM (inactive)
same,GI50,786-0,2.75 µM (inactive)
same,GI50,MOLT-4,2.09 µM (inactive)
same,GI50,SNB-75,19.4 µM (inactive)
same,GI50,Malme-3M,4.23 µM (inactive)
same,GI50,HCT-116,4.86 µM (inactive)
same,GI50,HCT-15,1.36 µM
same,GI50,SK-MEL-2,74.1 µM (inactive)
same,GI50,SF-539,6.97 µM (inactive)
same,GI50,A498,2.02 µM (inactive)
same,GI50,SF-295,4.11 µM (inactive)
same,GI50,MDA-N,6.68 µM (inactive)
same,GI50,SK-MEL-28,3.72 µM (inactive)
same,GI50,PC-3,8.85 µM (inactive)
same,GI50,RXF 393,9.04 µM (inactive)
same,GI50,EKVX,10.4 µM (inactive)
same,GI50,HL-60,2.46 µM (inactive)
same,GI50,T47D,7.28 µM (inactive)
same,GI50,HOP-62,7.5 µM (inactive)
same,GI50,SR,2.76 µM (inactive)
same,GI50,OVCAR-4,3.56 µM (inactive)
same,GI50,LOX IMVI,2.32 µM (inactive)
